From paper PMC8358040, “The enzymatic activity of inositol hexakisphosphate kinase controls circulating phosphate in mammals” (Nature Communications, 2021)
Values joined by “and” are separate entries in the source; they are usually repeats but may differ in a detail not shown here. Equal entries are not always repeated.

Legend:
[1] = tested on: phosphate excretion in urine; test: Cumulative 32P activity in urine of rats administered NaH2 32PO4; assay type: in vivo, rat; settings: lanthanum carbonate 1000 mg/kg 7th dose
Procedure: (§1) The experiment was performed using 8-week-old SD rats (CLEA Japan, Inc.). Male rats were randomly sorted into different groups based on their body weight (n = 5). […] After a 1 h treatment, NaH2^32PO4 solution (11 μCi/2 mL/rat) was administered orally. Following NaH2^32PO4 administration, rats were placed in metabolic cages, and faeces and urine were collected up to 72 h later. The compound was administered once a day during the 72 h experiment. […] The radioactivity (%) in the faecal and urine samples was calculated by setting the radioactivity of the administered NaH2^32PO4 to 100 %.

[2] = tested on: phosphate excretion in faeces; test: Cumulative 32P activity in faeces of rats administered NaH2 32PO4; assay type: in vivo, rat; settings: for Cumulative 32P activity in the faeces: lanthanum carbonate 1000 mg/kg 7th dose
Procedure: as §1

[3] = Plasma concentration of SC-919 in adenine-treated rats (sub-chronic dose study)
[4] = Plasma concentration of SC-919, single-dose study in normal monkeys; assay type: in vivo, cynomolgus monkey; settings: 0.3 mg/kg oral, time 1, individual animals (Fig3c)
Procedure: The experiments were performed at Hamamatsu Pharma Research, Inc. (Hamamatsu, Shizuoka, Japan), which is accredited by the American Association for Accreditation of Laboratory Animal Care. Male cynomolgus monkeys were housed in a room with controlled temperature, humidity, and lighting (12 h light/dark cycle). All monkeys were fed a regular diet (100 g/day, PS-A, Oriental Yeast Co., Ltd.) and had free access to tap water. The experiments were performed when the animals were 3–4 years old. The monkeys were randomized into different groups based on plasma phosphate, body weight (2.6–4.7 kg), and age (n = 6). Corn oil (FUJIFILM Wako) was used as a vehicle. […] Blood was collected from the cephalic vein, saphenous vein, or the femoral vein using a disposable syringe and needle at the indicated timepoints for the measurement of phosphate levels in the plasma. The concentration of the compound in the plasma was measured at the same timepoints (n = 6).

[5] = Plasma concentration of SC-919, single-dose study in normal rats; assay type: in vivo, rat
Procedure: The experiment was performed with 8-week-old male SD rats (CLEA Japan, Inc.). […] The concentration of the compound in the plasma was measured at the same timepoints (n = 3).

[6] = Plasma concentration of SC-919 in bilaterally nephrectomized rats; assay type: in vivo, rat; settings: bilaterally nephrectomised rats, 0.3 mg/kg oral, 5 h, individual animals (Fig4e)
Procedure: The experiment was performed with 9-week-old male SD rats (CLEA Japan, Inc.). For bilateral nephrectomy, rats were fasted for 16 h and were subcutaneously injected with buprenorphine (0.05 mg/kg, Otsuka). Thirty minutes later, the rats were anesthetized using isoflurane (3% v/v) and kept on thermal pads at 37 °C with isoflurane (2% v/v). The left and right abdomen and the neck were shaved with a clipper. The surgical site was disinfected with a chlorhexidine-containing antiseptic solution, and the aesthetic state was confirmed by the disappearance of the pain reflex. The skin was incised to expose the kidney, and the renal artery and vein were ligated, which was followed by the isolation of the kidney. […] A sham operation group (n = 6), without nephrectomy, was prepared following the same procedure. After completion of the operation, meloxicam (1 mg/kg) was subcutaneously administered once a day during the study. One day after the operation, anaesthesia was introduced using the procedure described above, and blood was collected from the jugular vein.

human IP6K3 = biological target: T1, human IP6K3 (Homo sapiens, UniProt Q96PC2); test: ADP-Glo kinase assay for IP6K activity; settings: read-out: IC50 IP6K3; recombinant human IP6K3 […], ATP 15 μM, InsP6 50 μM, 2 h; mean ± S.D.
T1 sequence (Q96PC2 1-410): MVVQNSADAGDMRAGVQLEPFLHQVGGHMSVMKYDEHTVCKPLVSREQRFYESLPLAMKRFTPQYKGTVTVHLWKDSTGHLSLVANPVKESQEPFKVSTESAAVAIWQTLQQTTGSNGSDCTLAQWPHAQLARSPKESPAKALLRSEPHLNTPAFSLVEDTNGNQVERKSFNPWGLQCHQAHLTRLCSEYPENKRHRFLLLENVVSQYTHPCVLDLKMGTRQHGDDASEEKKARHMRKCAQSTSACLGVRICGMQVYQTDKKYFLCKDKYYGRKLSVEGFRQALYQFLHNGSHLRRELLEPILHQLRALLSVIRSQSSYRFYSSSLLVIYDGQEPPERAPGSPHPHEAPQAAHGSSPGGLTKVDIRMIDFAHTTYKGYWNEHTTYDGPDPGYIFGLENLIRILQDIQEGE

human IP6K1 = biological target: T2, human IP6K1 (Homo sapiens, UniProt Q92551); test: ADP-Glo kinase assay for IP6K activity; assay type: biochemical; settings: recombinant human IP6K1 15 nM, ATP 15 μM, InsP6 50 μM, 2 h; mean ± S.D.
T2 construct: made in house; host or cells: Sf9 insect cells (baculovirus)
T2 sequence (Q92551 whole entry): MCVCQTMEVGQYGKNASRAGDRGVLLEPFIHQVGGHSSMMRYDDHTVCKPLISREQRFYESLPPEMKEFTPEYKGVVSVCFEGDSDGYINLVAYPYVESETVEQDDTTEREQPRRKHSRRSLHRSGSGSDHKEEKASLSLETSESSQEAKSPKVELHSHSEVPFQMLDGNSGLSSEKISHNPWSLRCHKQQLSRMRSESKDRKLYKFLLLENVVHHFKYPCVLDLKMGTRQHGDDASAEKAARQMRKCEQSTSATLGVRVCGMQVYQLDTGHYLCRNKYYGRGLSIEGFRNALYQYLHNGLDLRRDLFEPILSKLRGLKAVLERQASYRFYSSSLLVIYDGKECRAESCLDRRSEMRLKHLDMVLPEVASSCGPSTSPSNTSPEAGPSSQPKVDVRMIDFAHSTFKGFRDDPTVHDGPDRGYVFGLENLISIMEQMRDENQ

human IP6K2 = biological target: T3, human IP6K2 (Homo sapiens, UniProt Q9UHH9); test: ADP-Glo kinase assay for IP6K activity; settings: read-out: IC50 IP6K2; recombinant human IP6K2 12 nM, ATP 15 μM, InsP6 50 μM, 2 h; mean ± S.D.
T3 sequence (Q9UHH9 1-426): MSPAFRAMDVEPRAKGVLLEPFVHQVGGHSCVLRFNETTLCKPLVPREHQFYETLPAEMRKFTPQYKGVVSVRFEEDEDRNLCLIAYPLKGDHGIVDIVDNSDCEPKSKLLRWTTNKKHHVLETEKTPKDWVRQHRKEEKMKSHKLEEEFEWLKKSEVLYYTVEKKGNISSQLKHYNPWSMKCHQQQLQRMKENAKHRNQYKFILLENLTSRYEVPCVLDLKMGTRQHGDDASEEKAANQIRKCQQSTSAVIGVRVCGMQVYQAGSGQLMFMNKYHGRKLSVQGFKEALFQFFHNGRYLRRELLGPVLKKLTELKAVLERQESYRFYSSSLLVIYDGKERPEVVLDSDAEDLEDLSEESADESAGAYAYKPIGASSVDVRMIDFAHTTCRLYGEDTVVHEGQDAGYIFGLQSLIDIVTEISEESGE

O=C([O-])[O-].O=C([O-])[O-].O=C([O-])[O-].[La+3].[La+3] [Lanthanum carbonate]
Cumulative 32P activity in the urine ([1]; 8 h (Fig3g)): 0.04647% and 0.2136% and 1.254% and 0.632% and 0.6628% | Cumulative 32P activity in the urine ([1]; 24 h (Fig3g)): 0.658% and 2.356% and 3.626% and 2.673% and 3.04% | Cumulative 32P activity in the urine ([1]; 48 h (Fig3g)): 0.8554% and 3.259% and 4.427% and 3.818% and 3.918% | Cumulative 32P activity in the urine ([1]; 72 h (Fig3g)): 1.078% and 3.901% and 5.067% and 4.576% and 4.362% | 32P activity / phosphate excretion in faeces vs vehicle ([2]; in words): increased | Cumulative 32P activity in the faeces ([2]; 48 h (Fig3f)): 53.2569% and 73.3985% and 64.9027% and 66.783% and 73.7253% | Cumulative 32P activity in the faeces ([2]; 72 h (Fig3f)): 53.7862% and 74.2778% and 65.7229% and 68.7476% and 74.3353%

O=C(O)c1ccc2c(c1)[C@]1(CC[C@H](Oc3ncc(Cl)cc3Cl)CC1)C(=O)N2 [SC-919]
Concentration of SC-919 (plasma) ([3]; 1 mg/kg oral, initial dose, time 2, individual animals (Fig4a), 1 mg/kg): 928.621 and 807.664 and 876.622 | Concentration of SC-919 (plasma) ([3]; 1 mg/kg, initial dose, time 6 (Fig4a)): 850.061 and 949.996 and 720.403 | Concentration of SC-919 (plasma) ([3]; 1 mg/kg, seventh dose, time 2 (Fig4c)): 2909.926 and 3195.472 and 1783.864 | Concentration of SC-919 (plasma) ([3]; 1 mg/kg, seventh dose, time 6 (Fig4c)): 2957.483 and 3182.718 and 1810.036 | Concentration of SC-919 (plasma) ([3]; 1 mg/kg, seventh dose, time 24 (Fig4c)): 2238.331 and 2202.619 and 1356.448 | Concentration of SC-919 (plasma) ([3]; 10 mg/kg, initial dose, time 2 (Fig4a)): 5701.725 and 5986.890 and 6856.247 | Concentration of SC-919 (plasma) ([3]; 10 mg/kg, initial dose, time 6 (Fig4a)): 4444.794 and 6665.965 and 6592.043 | Concentration of SC-919 (plasma) ([3]; 10 mg/kg, initial dose, time 24 (Fig4a)): 2595.707 and 5143.151 and 4143.702 | Concentration of SC-919 (plasma) ([3]; 10 mg/kg, seventh dose, time 2 (Fig4c)): 8573.125 and 12574.890 and 8591.283 | Concentration of SC-919 (plasma) ([3]; 10 mg/kg, seventh dose, time 6 (Fig4c)): 7820.236 and 14817.670 and 9035.189 | Concentration of SC-919 in plasma [4]: 40.468 and 0.000 and 7.073 and 24.376 and 2.454 and 13.910 | Free SC-919 levels ([5]; animal studies using rats and monkeys, reviewer response): below 0.05 μM | Plasma concentration of SC-919 ([5]; normal rats, 1 mg/kg oral, time 1, individual animals (Fig3a), 1 mg/kg): 1942.907 and 1856.710 and 1476.530 | Plasma concentration of SC-919 ([5]; normal rats, 1 mg/kg oral, time 2 (Fig3a), 1 mg/kg): 2011.947 and 2121.932 and 1778.126 | Plasma concentration of SC-919 ([5]; normal rats, 1 mg/kg oral, time 4 (Fig3a), 1 mg/kg): 2195.083 and 2444.564 and 1949.961 | Plasma concentration of SC-919 ([5]; normal rats, 1 mg/kg oral, time 8 (Fig3a), 1 mg/kg): 1948.434 and 2469.995 and 1783.145 | Plasma concentration of SC-919 ([5]; normal rats, 3 mg/kg oral, time 1 (Fig3a), 3 mg/kg): 4153.987 and 3662.163 and 4004.199 | Plasma concentration of SC-919 ([5]; normal rats, 3 mg/kg oral, time 2 (Fig3a), 3 mg/kg): 5074.332 and 4401.713 and 4372.837 | Plasma concentration of SC-919 ([5]; normal rats, 3 mg/kg oral, time 4 (Fig3a), 3 mg/kg): 5790.125 and 5489.252 and 5879.739 | Plasma concentration of SC-919 ([5]; normal rats, 3 mg/kg oral, time 8 (Fig3a), 3 mg/kg): 6166.814 and 6363.863 and 4651.047 | Plasma concentration of SC-919 ([5]; normal rats, 10 mg/kg oral, time 1 (Fig3a), 10 mg/kg): 11886.470 and 10328.550 and 8429.354 | Plasma concentration of SC-919 ([5]; normal rats, 10 mg/kg oral, time 2 (Fig3a), 10 mg/kg): 13647.120 and 11744.460 and 11378.370 | Plasma concentration of SC-919 ([5]; normal rats, 10 mg/kg oral, time 4 (Fig3a), 10 mg/kg): 14060.780 and 13051.160 and 10832.720 | Plasma concentration of SC-919 ([5]; normal rats, 10 mg/kg oral, time 8 (Fig3a), 10 mg/kg): 14559.520 and 13008.450 and 10214.420 | Plasma concentration of SC-919 ([5]; normal rats, 10 mg/kg oral, time 24 (Fig3a), 10 mg/kg): 14337.480 and 9820.569 and 8024.378 | Plasma SC-919 concentrations ([5]; normal rats, oral administration, in words): increased in a dose-dependent manner | Concentration of SC-919 (plasma) [6]: 541.632 and 264.446 and 202.061 and 200.786 and 379.989 and 301.737 and 410.34

O=[N+]([O-])c1ccc(CNc2nc(NCc3cccc(C(F)(F)F)c3)nc3nc[nH]c23)cc1 [TNP, N2-(m-(trifluoromethyl)benzyl) N6-(p-nitrobenzyl)purine]
IC50 (human IP6K3): 260 ± 21 nM | IC50 (human IP6K1): 270 ± 100 nM | IC50 (human IP6K2): 850 ± 330 nM
